Legend:
ROCK2 = ROCK2 (Homo sapiens, UniProt O75116); test: ROCK2 kinase IC50 assay (CISBIO HTRF KinEASE-STK S2 kit); type: biochemical; conditions: incubated at room temperature for 2 hours
Procedure: The kinase IC50 was determined by a commercialized CISBIO kinase detection kit, HTRF KinEASE-STK S2 kit (62ST2PEC). ROCK2 (01-119) employed in the reaction was purchased from Carna Biosciences.
Before the assay, the following working solutions as needed were formulated with corresponding reagents according to the instruction of the kinase detection kit: 1×kinase buffer, 5×STK-52 substrate working solution (1.5 μM) and 5×ATP working solution (1.5 μM), 5×ROCK2 kinase working solution, 4×Streptavidin-XL665 working solution, and 4×STK-Ab-Cryptate 2 detection solution. Then the assay was performed according to the following procedure.
A solution of a compound at a concentration of 10000 nM was prepared with the 1×kinase buffer containing 2.5% DMSO. Gradient dilution of the solution of the compound was performed with the kinase buffer containing DMSO, so as to obtain solutions of a test compound at 9 different concentrations. In addition to wells of test compounds, a positive well (containing all the reagents except the compound) and a negative well (containing all the reagents except the test compound and kinase) were set. Except for the control wells (positive and negative wells), a solution of a test compound (4 μL) was added to each of the reaction wells, and a solution of 2.5% DMSO was added to the control wells. Then the substrate ([…], 2 μL. 5×STK-S2 substrate working solution) was added to each of the reaction wells. The 5×ROCK2 kinase working solution (2 μL, containing 1.4 ng ROCK2 kinase) was added to each of the reaction wells except for the negative well, the volume of which was made up with the 1×kinase buffer (2 μL). The 5×ATP working solution (2 μL) was added to each of the reaction wells, and the mixtures were incubated at room temperature for 2 hours. After the kinase reaction was complete, the 4×Streptavidin-XL665 working solution was added to each of the reaction wells, the solutions were mixed, followed by immediate addition of the 4×STK-Ab-Cryptate 2 detection solution (5 μL), and the mixtures were incubated at room temperature for 1 hour. The fluorescence signal was read on ENVISION (Perkinelmer) (excitation wavelength: 320 nm, and emission wavelength: 665 nm and 615 nm). The inhibitory rate in each well was calculated based on the fluorescence intensity value: ER (Emission Ratio)=(fluorescence intensity at 665 nm/fluorescence intensity at 615 nm); inhibitory rate=(ERpositive−ERtest compound)/(ERpositive−ERnegative)*100%. Curves were plotted and fitted to obtain the median inhibitory concentration (IC50) of each teat compound with the PRISM 5.0 software.

ROCK1 = ROCK1 (Homo sapiens (Human), UniProt Q13464); test: ROCK1 kinase IC50 assay (biological test method similar to the ROCK2 assay); type: biochemical
Sequence of ROCK1 (Q13464 whole entry, species assumed): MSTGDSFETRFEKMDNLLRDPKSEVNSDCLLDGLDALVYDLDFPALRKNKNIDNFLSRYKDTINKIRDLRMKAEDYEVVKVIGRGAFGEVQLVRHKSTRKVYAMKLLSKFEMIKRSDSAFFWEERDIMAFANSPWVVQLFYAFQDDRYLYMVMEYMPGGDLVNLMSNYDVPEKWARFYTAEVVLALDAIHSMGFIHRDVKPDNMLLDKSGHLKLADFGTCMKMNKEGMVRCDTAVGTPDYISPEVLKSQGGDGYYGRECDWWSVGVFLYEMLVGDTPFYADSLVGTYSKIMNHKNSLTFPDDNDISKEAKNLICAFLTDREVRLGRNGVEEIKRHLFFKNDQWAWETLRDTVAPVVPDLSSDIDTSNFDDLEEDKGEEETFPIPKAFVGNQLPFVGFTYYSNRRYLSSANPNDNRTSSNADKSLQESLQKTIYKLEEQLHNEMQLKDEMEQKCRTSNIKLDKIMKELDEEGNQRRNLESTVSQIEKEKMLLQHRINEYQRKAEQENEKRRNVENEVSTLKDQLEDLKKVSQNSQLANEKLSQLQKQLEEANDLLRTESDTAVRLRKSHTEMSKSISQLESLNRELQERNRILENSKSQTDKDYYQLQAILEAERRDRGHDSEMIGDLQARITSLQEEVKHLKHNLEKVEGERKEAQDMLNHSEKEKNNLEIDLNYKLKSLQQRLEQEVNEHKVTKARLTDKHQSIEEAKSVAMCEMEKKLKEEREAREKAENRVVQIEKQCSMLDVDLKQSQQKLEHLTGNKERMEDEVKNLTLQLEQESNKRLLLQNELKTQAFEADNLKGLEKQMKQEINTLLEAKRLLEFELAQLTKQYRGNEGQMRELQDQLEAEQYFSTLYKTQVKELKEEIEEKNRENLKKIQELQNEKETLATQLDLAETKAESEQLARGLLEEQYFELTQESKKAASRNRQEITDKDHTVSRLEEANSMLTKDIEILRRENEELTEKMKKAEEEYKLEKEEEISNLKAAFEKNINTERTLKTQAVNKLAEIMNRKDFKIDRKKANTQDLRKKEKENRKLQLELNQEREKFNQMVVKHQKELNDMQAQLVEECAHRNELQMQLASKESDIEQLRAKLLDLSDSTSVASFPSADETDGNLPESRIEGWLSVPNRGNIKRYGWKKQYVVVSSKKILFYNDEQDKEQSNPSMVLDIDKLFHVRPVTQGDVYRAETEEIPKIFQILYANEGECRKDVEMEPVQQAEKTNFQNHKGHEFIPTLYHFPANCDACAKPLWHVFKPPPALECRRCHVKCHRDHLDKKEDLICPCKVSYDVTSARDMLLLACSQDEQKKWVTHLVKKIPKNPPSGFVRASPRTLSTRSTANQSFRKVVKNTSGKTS
Outline: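 HTRF KinEASE-STK S2 assay with the STK-S2 biotinylated substrate and ATP, at 5× working solutions of 1.5 µM each. Kinase reaction with 9-point compound dilutions ran 2 h at room temperature, followed by 1 h streptavidin-XL665/Cryptate detection. The 665/615 nm ratio was normalised to no-compound and no-kinase wells, and IC50 was obtained by curve fitting.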

Row | Compound | IC50 (ROCK2) | IC50 (ROCK1)
1 | c1cc(Nc2ccc(-c3cn[nH]c3)cc2)nc(-c2ccc3cc(-c4nccs4)[nH]c3c2)n1 [TDI01826, N-(4-(1H-pyrazol-4-yl)phenyl)-2-(2-(thiazol-2-yl)-1H-indol-6-yl)pyrimidin-4-amine] | 75 nM | > 10 µM
2 | O=C(Nc1ccncc1Cl)N1Cc2ccc(-c3nccc(Nc4ccc5[nH]ncc5c4)n3)cc2C1 [TDI01374, 5-(4-((1H-indazol-5-yl)amino)pyrimidin-2-yl)-N-(3-chloropyridin-4-yl)isoindoline-2-carboxamide] | 64 nM | > 10 µM
3 | CC(C)(C)OC(=O)N1Cc2ccc(-c3nccc(Nc4ccc(-c5cn[nH]c5)cc4)n3)cc2C1 [TDI01557B, tert-butyl 5-(4-((4-(1H-pyrazol-4-yl)phenyl)amino)pyrimidin-2-yl)isoindoline-2-carboxylate] | 49 nM | > 10 µM
4 | COc1cnc(-c2ccc3cc(C(=O)N4CC(F)(F)C4)n(C)c3c2)nc1Nc1ccc(-c2cn[nH]c2)cc1 [TDI01915, (6-(4-((4-(1H-pyrazol-4-yl)phenyl)amino)-5-methoxypyrimidin-2-yl)-1-methyl-1H-indol-2-yl)(3,3-difluoroazetidin-1-yl)methanone] | 18 nM | > 10 µM
5 | O=C(CC1CCOC1)N1Cc2ccc(-c3nccc(Nc4ccc(-c5cn[nH]c5)cc4)n3)cc2C1 (stereo not drawn) [TDI01597B, 1-(5-(4-((4-(1H-pyrazol-4-yl)phenyl)amino)pyrimidin-2-yl)isoindolin-2-yl)-2-(tetrahydrofuran-3-yl)ethan-1-one] | 123 nM | > 10 µM
6 | Cn1c(C(=O)N2CC(F)(F)C2)cc2ccc(-c3nc(Nc4ccc(-c5cn[nH]c5)cc4)c4ccsc4n3)cc21 [TDI01947, (6-(4-((4-(1H-pyrazol-4-yl)phenyl)amino)thieno[2,3-d]pyrimidin-2-yl)-1-methyl-1H-indol-2-yl)(3,3-difluoroazetidin-1-yl)methanone] | 88 nM | > 10 µM
7 | Cn1c(C(=O)N2CC(F)(F)C2)cc2ccc(-c3ncc(Cl)c(Nc4ccc(-c5cn[nH]c5)cc4)n3)cc21 [TDI01949, (6-(4-((4-(1H-pyrazol-4-yl)phenyl)amino)-5-chloropyrimidin-2-yl)-1-methyl-1H-indol-2-yl)(3,3-difluoroazetidin-1-yl)methanone] | 59 nM | > 10 µM
8 | O=C(c1cc2ccc(-c3nccc(Nc4ccc(-c5cn[nH]c5)cc4)n3)cc2[nH]1)N1CC2(CNC2)C1 [TDI01369, (6-(4-((4-(1H-pyrazol-4-yl)phenyl)-amino)-pyrimidin-2-yl)-1H-indol-2-yl)(2,6-diazaspiro[3.3]heptan-2-yl)methanone] | 266 nM | 6.79 µM
9 | O=C(OC1CCC(F)(F)CC1)N1CCc2cc(-c3nccc(Nc4ccc(-c5cn[nH]c5)cc4)n3)ccc2C1 [TDI01656, 4,4-difluorocyclohexyl 6-(4-((4-(1H-pyrazol-4-yl)phenyl)amino)pyrimidin-2-yl)-3,4-dihydroisoquinoline-2(1H)-carboxylate] | 442 nM | > 10 µM
10 | O=C(NCC(F)(F)F)c1cc2ccc(-c3nccc(Nc4ccc(-c5cn[nH]c5)cc4)n3)cc2s1 [TDI01456, 6-(4-((4-(1H-pyrazol-4-yl)phenyl)-amino)-pyrimidin-2-yl)-N-(2,2,2-trifluoroethyl)-benzo[b]-thiophene-2-carboxamide] | 15 nM | > 10 µM
11 | Cn1c(C(=O)N2CC(F)(F)C2)cc2ccc(-c3nc(Nc4ccc(-c5cn[nH]c5)cc4)c4c(n3)OCCO4)cc21 [TDI01851, (6-(4-((4-(1H-pyrazol-4-yl)phenyl)amino)-6,7-dihydro-[1,4]dioxino[2,3-d]pyrimidin-2-yl)-1-methyl-1H-indol-2-yl)(3,3-difluoroazetidin-1-yl)methanone] | 15 nM | > 10 µM
12 | O=C(c1cc2ccc(-c3nc(Nc4ccc(-c5cn[nH]c5)cc4)c4sccc4n3)cc2s1)N1CC(F)(F)C1 [TDI01525, (6-(4-((4-(1H-pyrazol-4-yl)phenyl)-amino)thieno-[3,2-d]-pyrimidin-2-yl)benzo[b]-thiophen-2-yl)(3,3-difluoro-azetidin-1-yl)methanone] | 335 nM | > 10 µM
13 | CNC(=O)c1cc2ccc(-c3nc(Nc4ccc5[nH]ncc5c4)c4sccc4n3)cc2[nH]1 [TDI01405, 6-(4-((1H-indazol-5-yl)amino)-thieno[3,2-d]pyrimidin-2-yl)-N-methyl-1H-indole-2-carboxamide] | 160 nM | 4.06 µM
14 | O=C(c1cc2ccc(-c3nccc(Nc4ccc(-c5cn[nH]c5)cc4)n3)cc2[nH]1)N1CC(F)C1 [TDI01455, (6-(4-((4-(1H-pyrazol-4-yl)phenyl)amino)pyrimidin-2-yl)-1H-indol-2-yl)(3-fluoroazetidin-1-yl)methanone] | 29 nM | > 10 µM
15 | O=C(OC1CCNC1)N1Cc2ccc(-c3nccc(Nc4ccc(-c5cn[nH]c5)cc4)n3)cc2C1 (stereo not drawn) [TDI01551, pyrrolidin-3-yl 5-(4-((4-(1H-pyrazol-4-yl)phenyl)amino)pyrimidin-2-yl)isoindoline-2-carboxylate] | 31 nM | 1.73 µM
16 | c1cc(Nc2ccc(-c3cn[nH]c3)nc2)nc(-c2ccc3cc(-c4nccs4)[nH]c3c2)n1 [TDI01940, N-(6-(1H-pyrazol-4-yl)pyridin-3-yl)-2-(2-(thiazol-2-yl)-1H-indol-6-yl)pyrimidin-4-amine] | 147 nM | > 10 µM
17 | Cn1c(C(=O)N2CC(F)(F)C2)cc2ccc(-c3nc4c(c(Nc5ccc(-c6cn[nH]c6)cc5)n3)CCC4)cc21 [TDI01960, (6-(4-((4-(1H-pyrazol-4-yl)phenyl)amino)-6,7-dihydro-5H-cyclopenta[d]pyrimidin-2-yl)-1-methyl-1H-indol-2-yl)(3,3-difluoroazetidin-1-yl)methanone] | 50 nM | > 10 µM
18 | O=C(C1CC(F)(F)C1)N1Cc2ccc(-c3ncc(F)c(Nc4ccc(-c5cn[nH]c5)cc4F)n3)cc2C1 [TDI01598, (3,3-difluorocyclobutyl)(5-(5-fluoro-4-((2-fluoro-4-(1H-pyrazol-4-yl)phenyl)amino)pyrimidin-2-yl)isoindolin-2-yl)methanone] | 216 nM | > 10 µM
19 | CC1(F)CN(C(=O)c2cc3ccc(-c4nccc(Nc5ccc(-c6cn[nH]c6)cc5)n4)cc3[nH]2)C1 [TDI01441, (6-(4-((4-(1H-pyrazol-4-yl)phenyl)amino)pyrimidin-2-yl)-1H-indol-2-yl)(3-fluoro-3-methylazetidin-1-yl)methanone] | 181 nM | 6.07 µM
20 | O=C(C1CC(F)(F)C1)N1CCc2cc(-c3ncc(F)c(Nc4ccc(-c5cn[nH]c5)cc4)n3)ccc21 [TDI01618A, (5-(4-((4-(1H-pyrazol-4-yl)phenyl)amino)-5-fluoropyrimidin-2-yl)indolin-1-yl)(3,3-difluorocyclobutyl) methanone] | 129 nM | > 10 µM
21 | Cn1c(C(=O)N2CCC(O)(C(F)(F)F)C2)cc2ccc(-c3nccc(Nc4ccc(-c5cn[nH]c5)cc4)n3)cc21 (stereo not drawn) [TDI01505, (6-(4-((4-(1H-pyrazol-4-yl)phenyl)amino)pyrimidin-2-yl)-1-methyl-1H-indol-2-yl) (3-hydroxy-3-(trifluoromethyl)pyrrolidin-1-yl)methanone] | 209 nM | 5.67 µM
22 | CC1(C#N)CN(C(=O)c2cc3ccc(-c4nccc(Nc5ccc(-c6cn[nH]c6)cc5)n4)cc3[nH]2)C1 [TDI01461, 1-(6-(4-((4-(1H-pyrazol-4-yl)phenyl)amino)pyrimidin-2-yl)-1H-indole-2-carbonyl)-3-methylazetidine-3-carbonitrile] | 140 nM | 4.53 µM
23 | O=C(C1CC2(CCNCC2)C1)N1Cc2ccc(-c3nccc(Nc4ccc(-c5cn[nH]c5)cc4)n3)cc2C1 [TDI01546, (5-(4-((4-(1H-pyrazol-4-yl)phenyl)amino)pyrimidin-2-yl)isoindolin-2-yl)(7-azaspiro[3.5]nonan-2-yl)methanone] | 26 nM | 1.55 µM
24 | CS(=O)(=O)C1CN(C(=O)c2cc3ccc(-c4nccc(Nc5ccc(-c6cn[nH]c6)cc5)n4)cc3[nH]2)C1 [TDI01465, (6-(4-((4-(1H-pyrazol-4-yl)phenyl)amino)pyrimidin-2-yl)-1H-indol-2-yl)(3-(methylsulfonyl)azetidin-l-yl)methanone] | 398 nM | > 10 µM

Reference: US11390609B2, “Rho-associated protein kinase inhibitor, pharmaceutical composition comprising same, and preparation method and use thereof” (BEIJING TIDE PHARMACEUTICAL CO., LTD., priority 2017, dated 2022)
